Assay results published in patent US20240408139A1, “ENGINEERED CYTOKINE RECEPTORS FOR TUNABLE ADOPTIVE CELL THERAPY” (Dana-Farber Cancer Institute, Inc., priority 2021, published 2024).

Columns and labels:
[1] = tested on: CD8+ T cells comprising anti-fluorescein CAR; assay: Stimulation of anti-fluorescein CAR T cells by plate-bound or free FITC conjugate; IL-2, IFN-gamma and CD69 by flow cytometry; format: cell-based
Method: T cells comprising a nucleic acid encoding anti-fluorescein CAR were stimulated on FITC-conjugated-antibody-coated normal (Normal) or high affinity (High affinity) plates or antibody-FITC solution (Free) with increasing doses of FITC (0, 0.1, 1, 10, and 100 μg/mL) in the presence or absence of CD3/CD28 co-stimulation. Expression of IL-2, IFN-gamma and CD69 in CD8^+ T cells were assessed by flow cytometry.

[2] = tested on: CD4+ T cells; assay: Memory markers on CD4+ T cells expressing cytokine receptor switches, stimulated on FITC-conjugated-BSA-coated plate, flow cytometry; format: cell-based, human; details: with CD3/CD28-costimulation, up to 2 weeks, FIG. 3A
Method: (§1) T cells comprising nucleic acids encoding cytokine receptor switches were stimulated on FITC-conjugated-BSA-coated plate (FIG. 2) with increasing dose of FITC (0, 0.1, 1, 10, 100, and 1000 μg/mL) in the presence or absence of CD3/CD28 co-stimulation for up to 2 weeks. The effector memory (CD45RA^− CCR7^−), central memory (CD45RA^−, CCR7 ^+), and activation (CD69) markers on CD4^+ and CD8^+ T cells were assessed by flow cytometry.

[3] = tested on: CD8+ T cells; assay: Memory markers on CD8+ T cells expressing cytokine receptor switches, stimulated on FITC-conjugated-BSA-coated plate, flow cytometry; format: cell-based, human; details: with CD3/CD28-costimulation
Method: as §1

Molecule: BSA-FITC: fluorescein isothiocyanate (FITC) conjugated to bovine serum albumin (BSA)
- stimulation of fluorescein-specific BAT-CAR-T cells ([1]; bound on high-affinity plate, FIGS. 5A-5C): efficiently stimulated

Molecule: fluorescein isothiocyanate [FITC]
- expression of IL-2 in CAR T cells ([1]; FITC-dose-dependent, 0-100 μg/mL, FIG. 5A): increased
- expression of IFN-gamma in CAR T cells ([1]; FITC-dose-dependent, 0-100 μg/mL, FIG. 5B): increased
- expression of CD69 in CAR T cells ([1]; FITC-dose-dependent, 0-100 μg/mL, FIG. 5C): increased

B1: IL2RA-cytokine receptor switch: IL2RA signal peptide, anti-fluorescein scFv, CD8 hinge, IL2RA transmembrane and intracellular domains; SEQ ID NO: 59 (protein)
chain: MDSYLLMWGLLTFIMVPGCQADVVMTQTPLSLPVSLGDQASISCRSSQSLVHSNGNTYLRWYLQKPGQSPKVLIYKVSNRVSGVPDRFSGSGSGTDFTLKINRVEAEDLGVYFCSQSTHVPWTFGGGTKLEIKSSADDAKKDAAKKDDAKKDDAKKDGGVKLDETGGGLVQPGGAMKLSCVTSGFTFGHYWMNWVRQSPEKGLEWVAQFRNKPYNYETYYSDSVKGRFTISRDDSKSSVYLQMNNLRVEDTGIYYCTGASYGMEYLGQGTSVTVSTTTPAPRPPTPAPTIASQPLSLRPEACRPAAGGAVHTRGLDFACDVAVAGCVFLLISVLLLSGLTWQRRQRKSRRTI
- effector memory markers (CD45RA- CCR7-) on CD4+ T cells [2]: increased
- central memory markers (CD45RA-, CCR7+) on CD8+ T cells ([3]; FIG. 3B): increased
- effector memory markers (CD45RA- CCR7-) on CD8+ T cells ([3]; FITC-BSA-coated plate, up to 2 weeks, FIG. 3A): increased
